Broadly, the IC50 is the concentration that inhibits the measured activity by half.

The text below walks through data of patent US5932733A, “3-amino-2-oxo-1-piperidineacetic derivatives containing an arginine mimic as enzyme inhibitors” (Corvas International, Inc., priority 1995, dated 1999).

The target of one data set is alpha-thrombin (Homo sapiens, UniProt P00734). The experiment in a line: In vitro enzyme assay for specificity: thrombin amidolytic activity. It counts as biochemical. To be noted: 0.25 nM enzyme, 30 min preincubation, pH 7.5, mean of at least two experiments.
For another data set, the target named is T1, rt-PA (Homo sapiens, UniProt P00750).
T1 construct: purchased Genentech Inc
The experiment in a line: In vitro enzyme assay for specificity: recombinant tissue plasminogen activator. Conditions: 1.0 nM enzyme, 30 min preincubation, pH 7.5; mean of at least two experiments. It counts as biochemical. An excerpt:
Recombinant tissue plasminogen activator (rt-PA)

In the next data set the target is Plasmin (Homo sapiens, UniProt P00747). The experiment in a line: In vitro enzyme assay for specificity: plasmin. It counts as biochemical. To be noted: 1.0 nM enzyme, 30 min preincubation, pH 7.5; mean of at least two experiments. Here is the method:
Plasmin catalytic activity was determined using the chromogenic substrate, S-2251 [D-valyl-L-leucyl-L-lysine-p-nitroanilide], which was obtained from Kabi Diagnostica.

Another data set has as its target T2, aPC (Homo sapiens, UniProt P04070).
T2 construct: purchased Hematologic Technologies, Inc
Nature of the data set: In vitro enzyme assay for specificity: activated protein C. It counts as biochemical. To be noted: 1.0 nM enzyme, 30 min preincubation, pH 7.5; mean of at least two experiments. Here is the method: Activated Protein C (aPC)
aPC catalytic activity was determined using the chromogenic substrate, Pefachrome PC (delta-carbobenzloxy-D-lysine-L-prolyl-L-arginine-p-nitroanilide), obtained from Pentapharm Ltd.). […] Purified human aPC was obtained from Hematologic Technologies, Inc. The enzyme was diluted into HBSA prior to assay in which the final concentration was 1.0 nM.

Another data set addresses Chymotrypsin (Bos taurus, UniProt P00766). The experiment in a line: In vitro enzyme assay for specificity: chymotrypsin. It counts as biochemical, bovine. To be noted: 1.0 nM enzyme, 30 min preincubation, pH 7.5; mean of at least two experiments. Here is the method: Chymotrypsin catalytic activity was determined using the chromogenic substrate, S-2586 (methoxy-succinyl-L-arginine-L-prolyl-L-tyrosyl-p-nitroanilide), which was obtained from Kabi Diagnostica. […] Purified (3×-crystallized;CDI) bovine pancreatic alpha-chymotrypsin was obtained from Worthington Biochemical Corp. The enzyme was reconstituted in deionized water and diluted into HBSA prior to assay in which the final concentration was 1.0 nM.

A further data set deals with T3, Trypsin (Bos taurus, UniProt P00760).
T3 sequence (P00760 24-246): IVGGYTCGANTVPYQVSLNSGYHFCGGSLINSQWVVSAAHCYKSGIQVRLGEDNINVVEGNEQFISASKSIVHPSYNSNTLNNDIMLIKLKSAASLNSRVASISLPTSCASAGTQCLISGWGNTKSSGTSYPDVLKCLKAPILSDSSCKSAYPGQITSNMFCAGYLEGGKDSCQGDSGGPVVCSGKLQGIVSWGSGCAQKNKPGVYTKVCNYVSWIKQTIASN
The experiment in a line: In vitro enzyme assay for specificity: trypsin. Conditions: 0.5 nM enzyme, 30 min preincubation, pH 7.5; mean of at least two experiments. The format is biochemical, bovine. How it is done: Trypsin catalytic activity was determined using the chromogenic substrate, S-2222 (benzoyl-L-isoleucine-L-glutamic acid- (gamma-methyl ester)-L-arginine-p-nitroanilide), which was obtained from Kabi Diagnostica. […] Purified (3×-crystallized; TRL3) bovine pancreatic trypsin was obtained from Worthington Biochemical Corp. The enzyme was reconstituted in deionized water and diluted into HBSA prior to assay in which the final concentration was 0.5 nM.

The next data set relates to human plasma. The experiment in a line: Ex vivo anticoagulant effect, activated partial thromboplastin time (APTT) in human plasma. It counts as biochemical. Conditions: citrated human plasma; control 29 seconds; mean of two independent determinations. The text has this:
(§1) The control clotting times (0 inhibitor) for rat and human plasma were 19 seconds and 29 seconds, respectively. The concentration of BzlSO2 -norVal(cyclo)-Gly-Ala(3-guanPip)-al which caused a doubling of the control clotting time in rat and human plasma was 12.7 micromolar and 9.1 micromolar, respectively. The data is the mean of two independent determinations.
(§2) Fresh frozen citrated pooled normal human plasma was obtained from George King Biomedical, Overland Park, KA. Pooled normal rat plasma was prepared from citrated whole blood collected from anesthetized rats using standard procedures. The plasma was flash frozen and stored at-80° C. until use. Measurements APTT was made using the Coag-A-Mate RA4 automated coagulometer (General Diagnostics, Organon Technica, Oklahoma City, Okla.) using the Automated APTT reagent (Organon Technica, Durham, N.C.) as the initiator of clotting according to the manufacturers instructions. The assay was conducted by making a series of dilution's of Isomer B in rapidly thawed plasma followed by adding 200 microliters to the wells of the assay carousel.

The subject of another data set is rat plasma. The experiment in a line: Ex vivo anticoagulant effect, activated partial thromboplastin time (APTT) in rat plasma. The format is biochemical. Conditions: citrated rat plasma; control 19 seconds; mean of two independent determinations.
Excerpt: as §1, §2

Data set [1] concerns FeCl3-induced platelet-dependent arterial thrombosis. Nature of the data set: Rat model of FeCl3-induced platelet-dependent arterial thrombosis. It counts as in vivo. To be noted: single i.v. bolus, n=6, saline 6/6. An excerpt:
Kurz, K. D., Main, B. W., and Sandusky, G. E., Thromb. […] In this model a platelet-rich, occlusive thrombus is formed in a segment of the rat carotid artery treated locally with a fresh solution of FeCl3 absorbed to a piece of filter paper. The FeCl3 is thought to diffuse into the treated segment of artery and causes de-endothelialization of the affected vessel surface. […] The effect of a test compound on the incidence of occlusive thrombus formation following the application of the FeCl3 is monitored by ultrasonic flowtometry and is used as the primary end point. The use of flowtometry to measure carotid artery blood flow, is a modification of the original procedure in which thermal detection of clot formation was employed. Kurz, K. D., Main, B. W., and Sandusky, G. E., Thromb. […] The animals were prepared, anesthetized with Nembutal followed by the insertion of catheters for blood pressure monitoring, drug and anesthesia delivery. The left carotid artery was isolated by making a midline cervical incision followed by blunt dissection and spreading techniques to separate a 2 cm segment of the vessel from the carotid sheath. A silk suture is inserted under the proximal and distal ends of the isolated vessel to provide clearance for the placement of a ultrasonic flow probe (Transonic) around the proximal end of the vessel. The probe is then secured with a stationary arm. […] The test compound was administered as a single intravenous bolus at the doses outlined in Table 3 after placement of the flow probe and 5 minutes prior to the thrombogenic stimulus.

The subject of data set [2] is trypsin, plasmin and kallikrein. Conditions: Markwardt et al. 1972, inhibiting trypsin; cited from earlier work.
The conditions of data set [3]: literature report; cited from earlier work.
For data set [4] the following is noted: Markwardt et al. 1972; cited from earlier work.

T2 sequence (P04070 43-197 limits assumed): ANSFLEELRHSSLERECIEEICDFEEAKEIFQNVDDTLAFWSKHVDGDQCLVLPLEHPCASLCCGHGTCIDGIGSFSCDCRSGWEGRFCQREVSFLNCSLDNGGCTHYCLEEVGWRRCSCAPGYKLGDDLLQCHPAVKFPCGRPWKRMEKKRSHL
T2 sequence (P04070 212-461 limits assumed): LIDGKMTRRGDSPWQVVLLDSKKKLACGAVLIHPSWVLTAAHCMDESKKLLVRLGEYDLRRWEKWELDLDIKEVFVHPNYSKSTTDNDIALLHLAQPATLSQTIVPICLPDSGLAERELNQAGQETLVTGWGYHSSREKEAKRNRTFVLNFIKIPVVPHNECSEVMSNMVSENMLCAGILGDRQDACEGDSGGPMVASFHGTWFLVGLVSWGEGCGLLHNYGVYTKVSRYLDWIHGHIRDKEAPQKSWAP
Plasmin, sequence (P00747 97-580 limits assumed): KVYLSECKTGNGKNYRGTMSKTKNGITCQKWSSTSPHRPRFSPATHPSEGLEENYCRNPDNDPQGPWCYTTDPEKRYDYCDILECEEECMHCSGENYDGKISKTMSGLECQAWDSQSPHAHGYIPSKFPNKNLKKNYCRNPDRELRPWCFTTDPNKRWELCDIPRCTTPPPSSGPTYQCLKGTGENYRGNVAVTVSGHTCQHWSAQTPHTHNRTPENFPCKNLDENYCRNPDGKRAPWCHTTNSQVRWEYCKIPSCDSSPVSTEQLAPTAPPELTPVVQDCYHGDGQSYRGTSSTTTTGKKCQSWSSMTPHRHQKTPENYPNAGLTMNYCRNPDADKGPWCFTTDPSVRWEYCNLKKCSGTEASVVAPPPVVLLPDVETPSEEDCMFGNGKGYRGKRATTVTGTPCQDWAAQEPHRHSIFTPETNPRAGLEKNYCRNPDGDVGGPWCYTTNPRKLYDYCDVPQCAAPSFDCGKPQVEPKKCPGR
Plasmin, sequence (P00747 581-810 limits assumed): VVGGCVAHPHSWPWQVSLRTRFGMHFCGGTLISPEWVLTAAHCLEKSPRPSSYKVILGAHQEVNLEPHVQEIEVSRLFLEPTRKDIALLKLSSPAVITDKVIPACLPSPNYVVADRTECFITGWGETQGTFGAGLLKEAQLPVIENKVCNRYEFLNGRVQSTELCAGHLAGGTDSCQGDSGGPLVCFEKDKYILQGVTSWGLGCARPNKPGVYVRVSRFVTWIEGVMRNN
T1 sequence (P00750 36-562): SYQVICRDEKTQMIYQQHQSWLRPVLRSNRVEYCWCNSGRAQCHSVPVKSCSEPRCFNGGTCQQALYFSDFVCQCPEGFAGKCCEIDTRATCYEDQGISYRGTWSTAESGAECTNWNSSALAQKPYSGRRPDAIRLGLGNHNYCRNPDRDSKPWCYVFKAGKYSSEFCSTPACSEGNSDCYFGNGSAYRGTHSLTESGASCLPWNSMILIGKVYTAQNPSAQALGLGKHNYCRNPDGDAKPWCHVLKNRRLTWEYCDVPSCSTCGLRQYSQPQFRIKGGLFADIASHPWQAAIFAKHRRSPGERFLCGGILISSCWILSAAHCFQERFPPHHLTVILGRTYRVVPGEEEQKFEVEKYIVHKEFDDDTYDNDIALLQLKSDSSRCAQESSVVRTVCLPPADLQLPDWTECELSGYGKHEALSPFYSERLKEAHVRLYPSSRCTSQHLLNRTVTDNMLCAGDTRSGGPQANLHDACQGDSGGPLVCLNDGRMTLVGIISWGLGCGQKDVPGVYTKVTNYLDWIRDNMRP
Method for alpha-thrombin: The buffer used for all assays was HBSA (10 mM HEPES, pH 7.5, 150 mM sodium chloride, 0.1% bovine serum albumin). […] Following a 30-minute incubation at ambient temperature, 50 microliters of the substrate at the concentrations specified below, was added to the wells yielding a final total volume of 200 microliters. The initial velocity of chromogenic substrate hydrolysis was measured by the change in absorbance at 405 nm using a Thermo Max® Kinetic Microplate Reader over a 5 minute period in which less than 5% of the added substrate was utilized.
Thrombin catalytic activity was determined using the chromogenic substrate Pefachrome t-PA (CH3 SO2 -D-hexahydrotyrosine-glycyl-L-arginine-p-nitroanilide, obtained from Pentapharm Ltd.). The substrate was made up in deionized water followed by dilution in HBSA prior to the assay in which the final concentration was 300 micromolar (about 5-times Km). Purified human alpha-thrombin was obtained from Enzyme Research Laboratories, Inc. The enzyme was diluted into HBSA prior to the assay in which the final concentration was 0.25 nM.

On to `N=C(N)N1CCCC(C[C@@H](C=O)NC(=O)CN2CCC[C@H](NS(=O)(=O)Cc3ccccc3)C2=O)C1` (single isomer, unassigned) [A, benzylsulfonyl-norval(cyclo)-Gly-3-[3-piperidyl-(N-guanidino)]-L-alaninal], for which the IC50 against alpha-thrombin is 28.8 nM; at rt-PA, > 25000 nM; against Plasmin it was > 2500 nM; at aPC, > 25000 nM; against Chymotrypsin, > 25000 nM; against Trypsin, > 25000 nM.

As for `N=C(N)N1CCCC(C[C@@H](C=O)NC(=O)CN2CCCC[C@H](NS(=O)(=O)Cc3ccccc3)C2=O)C1` (single isomer, unassigned) [C, N-(BnSO2-norLeu(cyclo)-Gly)-3-[3-piperidyl-(N-guanidino)]alaninal], the IC50 against Plasmin was > 2500 nM; at aPC, > 2500 nM; on Chymotrypsin it was > 2500 nM; against Trypsin, 11200 nM.

For the compound `N=C(N)N1CCCC(C[C@@H](C=O)NC(=O)CN2CCCC[C@H](NS(=O)(=O)Cc3ccccc3)C2=O)C1` (single isomer, unassigned) [D, N-(BnSO2-norLeu(cyclo)-Gly)-3-[3-piperidyl-(N-guanidino)]alaninal], the IC50 was > 2500 nM against Plasmin, > 2500 nM against aPC, > 2500 nM at Chymotrypsin and 34400 nM against Trypsin.

Consider `N=C(N)N1CCCC(C[C@@H](C=O)NC(=O)CN2CCC[C@H](NS(=O)(=O)Cc3ccccc3)C2=O)C1` (single isomer, unassigned) [Isomer B, benzylsulfonyl-norval(cyclo)-Gly-3-[3-piperidyl-(N-guanidino)]-L-alaninal], for which half-maximal inhibition against alpha-thrombin (IC50) required 0.8 nM. The “concentration which caused a doubling of the control clotting time (APTT)” value in the data set with human plasma came to 9.1 µM; in the data set on rat plasma, 12.7 µM. For the same compound, the “Incidence of Occlusion” value is given as 6/6 in [1] (0.3 mg/kg); 4/6 in data set [1] (1.0 mg/kg); 0/6 in data set [1] (3.0 mg/kg, * p ≤ 0.05 from saline control by Fishers test).

With `N=C(N)c1ccc(CC(=O)C(=O)O)cc1` [APPA, 4-amidinophenylpyruvic acid], in data set [2], the “selectivity of thrombin inhibition” value is “non-selective, inhibiting trypsin, plasmin and kallikrein”. The toxicity result in data set [3] was “low toxicity”. Besides, the pharmacokinetics result in data set [4] is reported as “favourable pharmacokinetics”.
